Measured values published in ChEMBL document CHEMBL1143399, “A small-molecule nitroimidazopyran drug candidate for the treatment of tuberculosis” (Nature, 2000).
Calls of active or inactive are those of the source. The calls are words filed in the database; no cut-off is given here.

What was measured:
Type in all cases: functional, organism-based
Settings in all cases: variant bovis BCG
[1] = tested on: Mycobacterium tuberculosis; assay: Inhibition of protein synthesis in log phase Mycobacterium bovis BCG assessed as [35S] incorporation after 3 hrs
[2] = tested on: Mycobacterium tuberculosis; assay: Inhibition of lipid synthesis in log phase Mycobacterium bovis BCG assessed as [14C] acetate incorporation after 3 hrs by chromatography
[3] = tested on: Mycobacterium tuberculosis; assay: Inhibition of nucleic acid synthesis in Mycobacterium bovis BCG

Compound: O=[N+]([O-])c1cn2c(n1)OC[C@@H](OCc1ccc(OC(F)(F)F)cc1)C2 [PRETOMANID]
- Activity [1]: Active
- Activity [2]: inactive
- Activity [3]: inactive
